Active and inactive are the calls of the source. No cut-off for these calls is given here.
Biological target: not listed separately
Assay: Inhibition of alpha-glucosidase (unknown origin) using p-NPG as substrate by Dixon plot analysis
Parameters: species or system Homo sapiens

Ki [µM] | Structure (SMILES)
15.3 | COc1ccc(/C=C/c2cc(O)cc(O)c2)cc1O

Species: Homo sapiens
Assay: Mixed inhibition of alpha-glucosidase (unknown origin) using p-NPG as substrate by Lineweaver-Burk plot analysis

inhibition | Structure (SMILES)
Active | COc1ccc(/C=C/c2cc(O)cc(O)c2)cc1O

Biological target: not listed separately
Assay: Inhibition of alpha-glucosidase (unknown origin) using p-NPG as substrate by spectrophotometric analysis
Parameters: species or system Homo sapiens

Structure (SMILES) | IC50 [µM]
COc1ccc(/C=C/c2cc(O)cc(O[C@@H]3O[C@H](COC(=O)c4ccc(O)cc4)[C@@H](O)[C@H](O)[C@H]3O)c2)cc1 | > 100
Cc1cc(O[C@@H]2O[C@H](CO)[C@@H](O)[C@H](O)[C@H]2O)c2c(c1)C(=O)c1cccc(O)c1C2=O [CHRYSOPHANEIN] | > 100
OC[C@H]1O[C@@H](Oc2cc(O)cc(/C=C/c3ccc(O)cc3)c2)[C@H](O)[C@@H](O)[C@@H]1O [PICEID] | > 100
COc1cc(O[C@@H]2O[C@H](CO)[C@@H](O)[C@H](O)[C@H]2O)c2c(c1)C(=O)C(C)=C(C(C)=O)C2=O | > 100
C[C@H]1O[C@H](O[C@H]2[C@H](O)[C@@H](O)[C@@H](O[C@H]3[C@H](O)[C@@H](O)C(O)O[C@@H]3CO)O[C@@H]2CO)[C@H](O)[C@@H](O)[C@@H]1N[C@H]1C=C(CO)[C@@H](O)[C@H](O)[C@H]1O (some centres undefined) [ACARBOSE] | 127
COc1ccc(/C=C/c2cc(O)cc(O[C@@H]3O[C@H](COC(C)=O)[C@@H](O)[C@H](O)[C@H]3O)c2)cc1O | > 100
COc1cc(O[C@@H]2O[C@H](CO)[C@@H](O)[C@H](O)[C@H]2O)c2c(O)c(C(C)=O)c(C)cc2c1 | > 100

Other lines, results leading:

IC50 [µM] | Structure (SMILES)
> 100 | Cc1cc(O)c2c(c1)C(=O)c1cccc(O[C@@H]3O[C@H](CO)[C@@H](O)[C@H](O)[C@H]3O)c1C2=O [PULMATIN]
> 100 | COc1ccc(/C=C\c2cc(O)cc(O[C@@H]3O[C@H](COC(=O)/C=C/c4ccc(O)cc4)[C@@H](O)[C@H](O)[C@H]3O)c2)cc1
80.1 | COc1ccc([C@@H]2[C@@H](c3cc(O)cc(O)c3)[C@@H](c3cc(O)cc(O)c3)[C@@H]2c2ccc(OC)c(O)c2)cc1O
15.4 | COc1ccc(/C=C/c2cc(O)cc(O)c2)cc1O
> 100 | COc1ccc(/C=C/c2cc(O)cc(O[C@@H]3O[C@H](CO)[C@@H](O)[C@H](O)[C@H]3O)c2)cc1O [RHAPONTIN]

— ChEMBL document CHEMBL4627309, “Tetra-aryl cyclobutane and stilbenes from the rhizomes of Rheum undulatum and their α-glucosidase inhibitory activity: Biological evaluation, kinetic analysis, and molecular docking simulation” (Bioorg Med Chem Lett, 2020)
